In ChEMBL document CHEMBL1909046, “DrugMatrix in vitro pharmacology data”:

Experiments:
[1] = DRUGMATRIX: Calcium Channel Type L, Dihydropyridine radioligand binding (ligand: [3H] Nitrendipine); format: cell membranes, Rattus norvegicus, Wistar, Cerebral cortex, Membrane; details: Not Active = under 50% inhibition at 10 µM
[2] = DRUGMATRIX: GABAA, Flunitrazepam, Central radioligand binding (ligand: [3H] Flunitrazepam); format: cell membranes, Rattus norvegicus, Wistar, Brain, Membrane; details: Not Active = under 50% inhibition at 10 µM
Caspase-1 = molecular target: T1, Caspase-1 (Homo sapiens, UniProt P29466); set-up: species or system Escherichia coli;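 further: Caspase-1 enzyme inhibition assay with a peptide substrate; in other assays of this panel Not Active means under 50% inhibition at 10 µM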
T1 sequence (P29466 whole entry): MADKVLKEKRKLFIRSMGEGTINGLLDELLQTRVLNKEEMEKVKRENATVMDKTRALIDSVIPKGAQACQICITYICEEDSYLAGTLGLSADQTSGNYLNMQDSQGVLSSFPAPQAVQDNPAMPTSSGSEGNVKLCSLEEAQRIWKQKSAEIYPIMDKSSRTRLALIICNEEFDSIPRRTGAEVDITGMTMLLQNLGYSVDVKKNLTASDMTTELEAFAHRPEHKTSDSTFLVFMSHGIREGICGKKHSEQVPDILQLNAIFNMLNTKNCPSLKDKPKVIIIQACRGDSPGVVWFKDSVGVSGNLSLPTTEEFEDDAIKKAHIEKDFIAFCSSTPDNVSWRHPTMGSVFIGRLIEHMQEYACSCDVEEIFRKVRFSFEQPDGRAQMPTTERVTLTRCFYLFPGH

[3] = molecular target: Tyrosine-protein kinase Lck (Homo sapiens, UniProt P06239); assay: DRUGMATRIX: Protein Tyrosine Kinase, LCK enzyme inhibition (substrate: Poly(Glu:Tyr)); format: cell-based, Insect cells; details: Not Active = under 50% inhibition at 10 µM
Chain of Tyrosine-protein kinase Lck (P06239 whole entry): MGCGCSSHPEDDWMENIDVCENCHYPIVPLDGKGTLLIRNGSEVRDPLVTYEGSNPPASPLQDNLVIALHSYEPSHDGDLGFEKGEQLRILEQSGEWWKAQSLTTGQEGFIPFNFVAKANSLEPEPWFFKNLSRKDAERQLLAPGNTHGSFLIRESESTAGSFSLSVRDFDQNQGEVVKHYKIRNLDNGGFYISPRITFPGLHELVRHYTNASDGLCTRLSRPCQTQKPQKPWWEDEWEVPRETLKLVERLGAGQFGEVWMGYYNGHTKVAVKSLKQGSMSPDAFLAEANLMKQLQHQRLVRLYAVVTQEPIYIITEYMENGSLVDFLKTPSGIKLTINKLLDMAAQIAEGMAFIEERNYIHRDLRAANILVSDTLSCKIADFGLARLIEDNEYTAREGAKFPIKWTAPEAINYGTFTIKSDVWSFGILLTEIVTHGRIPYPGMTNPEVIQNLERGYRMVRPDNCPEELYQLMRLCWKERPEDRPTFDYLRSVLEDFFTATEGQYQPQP

Mu-type opioid receptor = Mu-type opioid receptor (Homo sapiens, UniProt P35372); assay: DRUGMATRIX: Opiate mu (OP3, MOP) radioligand binding (ligand: [3H] Diprenorphine); format: cell membranes, CHO-K1, Membrane; details: cho-k1; Not Active = under 50% inhibition at 10 µM
Chain of Mu-type opioid receptor (P35372 whole entry): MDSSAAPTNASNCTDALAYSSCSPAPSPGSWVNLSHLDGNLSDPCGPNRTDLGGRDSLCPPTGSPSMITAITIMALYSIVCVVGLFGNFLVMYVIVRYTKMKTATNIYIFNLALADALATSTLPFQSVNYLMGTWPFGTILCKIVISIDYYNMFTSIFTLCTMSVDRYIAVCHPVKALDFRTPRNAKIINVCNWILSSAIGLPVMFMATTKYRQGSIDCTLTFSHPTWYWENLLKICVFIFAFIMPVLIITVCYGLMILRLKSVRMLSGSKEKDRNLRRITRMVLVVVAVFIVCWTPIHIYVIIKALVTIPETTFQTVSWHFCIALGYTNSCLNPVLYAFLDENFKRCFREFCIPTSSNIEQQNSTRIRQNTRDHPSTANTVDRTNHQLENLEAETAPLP

Row | Structure (SMILES) | IC50 [1] | Ki [1] | IC50 [2] | Ki [2] | IC50 (Caspase-1) | IC50 ([3]; insect cells) | IC50 (Mu-type opioid receptor) | IC50 ([2]; read-out: IC50) | Ki ([2]; read-out: Ki) | IC50 ([3]; read-out: IC50) | IC50 ([1]; read-out: IC50) | Ki ([1]; read-out: Ki) | IC50 (Caspase-1; read-out: IC50)
1 | CC(C)(C)NC(=O)[C@@H]1C[C@@H]2CCCC[C@@H]2CN1C[C@@H](O)[C@H](Cc1ccccc1)NC(=O)[C@H](CC(N)=O)NC(=O)c1ccc2ccccc2n1 | Not Active | Not Active | Not Active | Not Active | Not Active | Not Active |  |  |  |  |  |  | 
2 | CC(=O)[C@@]1(O)CC[C@H]2[C@@H]3C[C@H](C)C4=CC(=O)CC[C@]4(C)[C@H]3CC[C@@]21C | Not Active | Not Active | Not Active | Not Active | Not Active | Not Active | Not Active |  |  |  |  |  | 
3 | N[C@@H](Cc1ccc(N(CCCl)CCCl)cc1)C(=O)O | Not Active | Not Active | Not Active | Not Active | Not Active | Not Active |  |  |  |  |  |  | 
4 | CCCCc1oc2ccccc2c1C(=O)c1cc(I)c(OCCN(CC)CC)c(I)c1 [AMIODARONE] |  |  |  |  | Not Active | Not Active |  |  |  |  |  |  | 
5 | OCCN(CCO)c1nc(N2CCCCC2)c2nc(N(CCO)CCO)nc(N3CCCCC3)c2n1 [DIPYRIDAMOLE] | Not Active | Not Active |  |  | Not Active | Not Active | Not Active | 0.382 µM | 0.311 µM |  |  |  | 
6 | Cc1oncc1C(=O)Nc1ccc(C(F)(F)F)cc1 [LEFLUNOMIDE] | Not Active | Not Active | Not Active | Not Active | Not Active | Not Active | Not Active |  |  |  |  |  | 
7 | c1ccc([C@H]2CN3CCSC3=N2)cc1 [LEVAMISOLE] | Not Active | Not Active | Not Active | Not Active | Not Active | Not Active | Not Active |  |  |  |  |  | 
8 | N[C@@H](Cc1ccc(O)c(O)c1)C(=O)O [LEVODOPA] | Not Active | Not Active | Not Active | Not Active | Not Active |  | Not Active |  |  | 3.73 µM |  |  | 
9 | N[C@@H](Cc1cc(I)c(Oc2ccc(O)c(I)c2)c(I)c1)C(=O)O [LIOTHYRONINE] |  |  |  |  | Not Active | Not Active | Not Active |  |  |  |  |  | 
10 | O=NN(CCCl)C(=O)NC1CCCCC1 [LOMUSTINE] | Not Active | Not Active | Not Active | Not Active | Not Active | Not Active | Not Active |  |  |  |  |  | 
11 | CCOC(=O)N1CCC(=C2c3ccc(Cl)cc3CCc3cccnc32)CC1 [LORATADINE] | Not Active | Not Active | Not Active | Not Active | Not Active | Not Active | Not Active |  |  |  |  |  | 
12 | Cn1ccnc1S [METHIMAZOLE] | Not Active | Not Active | Not Active | Not Active | Not Active | Not Active | Not Active |  |  |  |  |  | 
13 | CC[C@@H](CO)NC(=O)[C@@H]1C=C2c3cccc4[nH]cc(c34)C[C@H]2N(C)C1 [METHYLERGONOVINE] | Not Active | Not Active | Not Active | Not Active | Not Active | Not Active |  |  |  |  |  |  | 
14 | COc1nc(C)nc(Cl)c1NC1=NCCN1 [MOXONIDINE] | Not Active | Not Active | Not Active | Not Active | Not Active | Not Active | Not Active |  |  |  |  |  | 
15 | COc1c(C)c2c(c(O)c1C/C=C(\C)CCC(=O)O)C(=O)OC2 [MYCOPHENOLIC ACID] | Not Active | Not Active | Not Active | Not Active | Not Active | Not Active | Not Active |  |  |  |  |  | 
16 | O=c1ncn2nc(Sc3ccc(F)cc3F)ccc2c1-c1c(Cl)cccc1Cl [NEFLAMAPIMOD] |  |  |  |  | Not Active | Not Active | Not Active | 12 µM | 9.77 µM |  | 38.9 µM | 25 µM | 
17 | CN1CCN(CCCN2c3ccccc3Sc3ccc(Cl)cc32)CC1 [PROCHLORPERAZINE] |  |  |  |  | Not Active | Not Active | Not Active |  |  |  |  |  | 
18 | CO[C@H]1/C=C/O[C@@]2(C)Oc3c(C)c(O)c4c(O)c(c(/C=N/N5CCN(C)CC5)c(O)c4c3C2=O)NC(=O)/C(C)=C\C=C\[C@H](C)[C@H](O)[C@@H](C)[C@@H](O)[C@@H](C)[C@H](OC(C)=O)[C@@H]1C [RIFAMPIN] | Not Active | Not Active | Not Active | Not Active |  | Not Active | Not Active |  |  |  |  |  | 8.32 µM
